Measurements from patent US11000033B2, “Ketone or oxime compound, and herbicide” (NISSAN CHEMICAL CORPORATION, priority 2014, dated 2021).

Tests used:
Type in all cases: in vivo
[1] = tested on: Echinochloa crus-galli var. crus-galli; assay: Test Example 4: herbicidal effect by soil treatment (symbol H); conditions: application herbicide amount 320 g/ha
Outline: (§1)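 Seeds were sown in sterilized diluvial soil, covered with about 1.5 cm of soil, and the soil surface was sprayed with a water-diluted emulsion of the compound at a predetermined rate. Plants grew in a greenhouse at 25° C. to 30° C.; effects were scored visually 3 weeks after application.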

[2] = tested on: Echinochloa oryzacola Vasing.; assay: Test Example 1: herbicidal activity, application before weed generation in submerged conditions (symbol A); conditions: application herbicide amount 320 g/ha
Outline: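 Paddy pre-emergence test. Formulated emulsion, water-diluted to a predetermined rate, is applied to floodwater on sowing day; rice transplanted at 2.5 leaves. Effect read at 3 weeks on a 0–5 herbicidal-ratio scale.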

[3] = tested on: Abutilon theophrasti; assay: Test Example 4: herbicidal effect by soil treatment (symbol M); conditions: application herbicide amount 320 g/ha
Outline: as §1

[4] = tested on: transplanted rice plant; assay: Test Example 1: effect on crop, application before weed generation in submerged conditions (symbol a); conditions: application herbicide amount 320 g/ha
Outline: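 Alluvial soil pots flooded to 4 cm water, sown with Echinochloa oryzacola, Scirpus juncoides and Monochoria vaginalis, then transplanted with 2.5 leaf stage rice seedlings; pre-emergence application. Greenhouse 25° C. to 30° C.; scored 0–5 by herbicidal ratio 3 weeks after application.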

[5] = tested on: Amaranthus retroflexus; assay: Test Example 5: herbicidal effect by foliage application, plastic box (symbol N); conditions: 320 g/ha, 3 weeks after application
Outline: (§2)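 Seeds were sown in sterilized diluvial soil, covered with about 1.5 cm of soil and grown 14 days in a greenhouse at 25° C. to 30° C. An emulsifiable formulation diluted in water to a set rate was sprayed over foliage, and injury was scored 3 weeks later.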

[6] = tested on: Chenopodium album; assay: Test Example 4: herbicidal effect by soil treatment (symbol O); conditions: application herbicide amount 320 g/ha
Outline: as §1

[7] = tested on: Veronica persica; assay: Test Example 4: herbicidal effect by soil treatment (symbol R); conditions: application herbicide amount 320 g/ha
Outline: as §1

[8] = tested on: Setaria viridis; assay: Test Example 5: herbicidal effect by foliage application, plastic box (symbol G); conditions: 320 g/ha, 3 weeks after application
Outline: as §2

[9] = tested on: corn; assay: Test Example 5: effect on crop by foliage application, plastic box (symbol c); conditions: 320 g/ha, 3 weeks after application
Outline: (§3)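 Foliage-application test plants come from spot sowing in sterilized diluvial soil under a soil layer of about 1.5 cm, grown at 25° C. to 30° C. in a greenhouse.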

[10] = tested on: Cyperus difformis; assay: Test Example 3: herbicidal effect by foliage application, Wagner pot (symbol E); conditions: application herbicide amount 320 g/ha
Outline: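 In a shallow-flooded alluvial soil system held at 25–30 °C, plants including rice grew for 14 days and were then sprayed over the foliage with emulsion diluted to a fixed herbicide amount. Visual rating followed at 3 weeks.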

[11] = tested on: Scirpus juncoides; assay: Test Example 2: herbicidal activity, application during weed generation in submerged conditions (symbol B); conditions: Table 23; application herbicide amount 320 g/ha; grade 0-5 by criteria of Test Example 1
Outline: (§4)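 Compound was applied as a water-diluted emulsion into the standing water of flooded pots (4 cm) once co-sown weeds reached one to two leaves. Greenhouse temperature was 25° C. to 30° C., soil was alluvial, and each species was rated visually after 3 weeks.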

[12] = tested on: Monochoria vaginalis; assay: Test Example 2: herbicidal activity, application during weed generation in submerged conditions (symbol C); conditions: Table 23; application herbicide amount 320 g/ha; grade 0-5 by criteria of Test Example 1
Outline: as §4

[13] = tested on: soybean; assay: Test Example 5: effect on crop by foliage application, plastic box (symbol d); conditions: 320 g/ha, 3 weeks after application
Outline: as §3

SMILES | H: Echinochloa crus-galli var. crus-galli, herbicidal effect grade [1] | Herbicidal effect grade, A: Echinochloa oryzacola Vasing. [2] | M: Abutilon theophrasti, herbicidal effect grade [3] | Effect grade on crop, a: transplanted rice plant [4] | N: Amaranthus retroflexus, herbicidal effect (criteria of Test Example 1) [5] | O: Chenopodium album, herbicidal effect grade [6] | R: Veronica persica, herbicidal effect grade [7] | G: Setaria viridis, herbicidal effect (criteria of Test Example 1) [8] | c: corn, effect on crop (criteria of Test Example 1) [9] | herbicidal effect on E, grade 0-5 [10] | Herbicidal effect grade, B: Scirpus juncoides [11] | Herbicidal effect grade, C: Monochoria vaginalis [12] | d: soybean, effect on crop (criteria of Test Example 1) [13] | Herbicidal effect grade, H: Echinochloa crus-galli var. crus-galli [1] | Herbicidal effect grade, M: Abutilon theophrasti [3] | Herbicidal effect grade, O: Chenopodium album [6] | Herbicidal effect grade, R: Veronica persica [7]
CON=C(C)CC1CC(O)=C(c2c(C)cc(OC)cc2C)C1=O (stereo not drawn) [6-055] | 5 (Herbicidal ratio of 90% or more (almost completely withered)) | 4 (Herbicidal ratio of 70% or higher and lower than 90%) | 3 (Herbicidal ratio of 40% or higher and lower than 70%) | 5 (Herbicidal ratio of 90% or more (almost completely withered)) | 0 (Herbicidal ratio of 5% or lower (almost no effect)) | 0 (Herbicidal ratio of 5% or lower (almost no effect)) | 0 (Herbicidal ratio of 5% or lower (almost no effect)) | 5 (Herbicidal ratio of 90% or more (almost completely withered)) | 5 (Herbicidal ratio of 90% or more (almost completely withered)) | 5 (Herbicidal ratio of 90% or more (almost completely withered)) | 2 (Herbicidal ratio of 20% or higher and lower than 40%) | 0 (Herbicidal ratio of 5% or lower (almost no effect)) | 3 (Herbicidal ratio of 40% or higher and lower than 70%) |  |  |  | 
CC(=O)CC1CC(O)=C(c2c(C)cc(-n3cccn3)cc2C)C1=O (stereo not drawn) [7-024] |  | 2 (Herbicidal ratio of 20% or higher and lower than 40%) |  | 2 (Herbicidal ratio of 20% or higher and lower than 40%) | 0 (Herbicidal ratio of 5% or lower (almost no effect)) |  |  | 0 (Herbicidal ratio of 5% or lower (almost no effect)) | 1 (Herbicidal ratio of 5% or higher and lower than 20%) | 2 (Herbicidal ratio of 20% or higher and lower than 40%) | 0 (Herbicidal ratio of 5% or lower (almost no effect)) | 0 (Herbicidal ratio of 5% or lower (almost no effect)) | 0 (Herbicidal ratio of 5% or lower (almost no effect)) | 0 (Herbicidal ratio of 5% or lower (almost no effect)) | 0 (Herbicidal ratio of 5% or lower (almost no effect)) | 0 (Herbicidal ratio of 5% or lower (almost no effect)) | 0 (Herbicidal ratio of 5% or lower (almost no effect))
CON=C(C)CC1CC(O)=C(c2c(C)cc(C)cc2SC)C1=O (stereo not drawn) [6-075] | 0 (Herbicidal ratio of 5% or lower (almost no effect)) | 4 (Herbicidal ratio of 70% or higher and lower than 90%) | 0 (Herbicidal ratio of 5% or lower (almost no effect)) | 3 (Herbicidal ratio of 40% or higher and lower than 70%) | 0 (Herbicidal ratio of 5% or lower (almost no effect)) | 0 (Herbicidal ratio of 5% or lower (almost no effect)) | 0 (Herbicidal ratio of 5% or lower (almost no effect)) | 0 (Herbicidal ratio of 5% or lower (almost no effect)) | 4 (Herbicidal ratio of 70% or higher and lower than 90%) | 3 (Herbicidal ratio of 40% or higher and lower than 70%) | 0 (Herbicidal ratio of 5% or lower (almost no effect)) | 1 (Herbicidal ratio of 5% or higher and lower than 20%) | 0 (Herbicidal ratio of 5% or lower (almost no effect)) |  |  |  | 
CON=C(C)CC1CC(O)=C(c2c(C)cc(-c3ccc(Cl)cc3Cl)cc2C)C1=O (stereo not drawn) [6-088] |  | 4 (Herbicidal ratio of 70% or higher and lower than 90%) |  | 3 (Herbicidal ratio of 40% or higher and lower than 70%) | 0 (Herbicidal ratio of 5% or lower (almost no effect)) |  |  | 5 (Herbicidal ratio of 90% or more (almost completely withered)) | 2 (Herbicidal ratio of 20% or higher and lower than 40%) | 5 (Herbicidal ratio of 90% or more (almost completely withered)) | 2 (Herbicidal ratio of 20% or higher and lower than 40%) | 0 (Herbicidal ratio of 5% or lower (almost no effect)) | 5 (Herbicidal ratio of 90% or more (almost completely withered)) | 5 (Herbicidal ratio of 90% or more (almost completely withered)) | 3 (Herbicidal ratio of 40% or higher and lower than 70%) | 5 (Herbicidal ratio of 90% or more (almost completely withered)) | 4 (Herbicidal ratio of 70% or higher and lower than 90%)
COc1cc(C)c(C2=C(O)CC(CC(C)=O)C2=O)c(C)c1 (stereo not drawn) [7-020] |  | 2 (Herbicidal ratio of 20% or higher and lower than 40%) |  | 2 (Herbicidal ratio of 20% or higher and lower than 40%) | 0 (Herbicidal ratio of 5% or lower (almost no effect)) |  |  | 3 (Herbicidal ratio of 40% or higher and lower than 70%) | 0 (Herbicidal ratio of 5% or lower (almost no effect)) | 3 (Herbicidal ratio of 40% or higher and lower than 70%) | 0 (Herbicidal ratio of 5% or lower (almost no effect)) | 0 (Herbicidal ratio of 5% or lower (almost no effect)) | 0 (Herbicidal ratio of 5% or lower (almost no effect)) | 0 (Herbicidal ratio of 5% or lower (almost no effect)) | 0 (Herbicidal ratio of 5% or lower (almost no effect)) | 0 (Herbicidal ratio of 5% or lower (almost no effect)) | 0 (Herbicidal ratio of 5% or lower (almost no effect))
CON=C(C)CC1CC(O)=C(c2c(C)cc(C(C)=NOC)cc2C)C1=O (stereo not drawn) [6-065] | 5 (Herbicidal ratio of 90% or more (almost completely withered)) | 4 (Herbicidal ratio of 70% or higher and lower than 90%) | 0 (Herbicidal ratio of 5% or lower (almost no effect)) | 4 (Herbicidal ratio of 70% or higher and lower than 90%) | 0 (Herbicidal ratio of 5% or lower (almost no effect)) | 3 (Herbicidal ratio of 40% or higher and lower than 70%) | 3 (Herbicidal ratio of 40% or higher and lower than 70%) | 5 (Herbicidal ratio of 90% or more (almost completely withered)) | 5 (Herbicidal ratio of 90% or more (almost completely withered)) | 5 (Herbicidal ratio of 90% or more (almost completely withered)) | 1 (Herbicidal ratio of 5% or higher and lower than 20%) | 2 (Herbicidal ratio of 20% or higher and lower than 40%) | 1 (Herbicidal ratio of 5% or higher and lower than 20%) |  |  |  | 
